#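 How tested: cells in 96-well plates exposed to compound for 48 hours at five concentrations. GI50 is the concentration that inhibits growth by half. At the TGI there is no net growth.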
# Assays:
# Test in all cases: NCI anticancer screen, dose series, 48 h
# [1] = tested on: MALME-3M melanoma
# [2] = tested on: RXF 393 renal
# [3] = tested on: SF-539 CNS
# [4] = tested on: NCI-H460 lung
# [5] = tested on: HOP-62 NSCLC
# [6] = tested on: MDA-MB-231 breast
# [7] = tested on: SK-OV-3 ovarian
# [8] = tested on: HCC-2998 colon
# [9] = tested on: SK-MEL-5 melanoma
# [10] = tested on: NCI/ADR-RES ovarian
# [11] = tested on: A549 NSCLC
# [12] = tested on: HCT-116 colon
# [13] = tested on: TK-10 renal
# [14] = tested on: SF-268 CNS
# [15] = tested on: NCI-H522 lung
# [16] = tested on: DU-145 prostate
# [17] = tested on: UACC-62 melanoma
# [18] = tested on: OVCAR-5 ovarian
# [19] = tested on: MDA-MB-435
# [20] = tested on: M14 melanoma
# [21] = tested on: CAKI-1 renal
# [22] = tested on: 786-0 renal
# [23] = tested on: HT29 colon
# [24] = tested on: RPMI-8226 leukemia
# [25] = tested on: ACHN renal
# [26] = tested on: HOP-92 NSCLC
# [27] = tested on: SN12C renal
# [28] = tested on: OVCAR-3 ovarian
# [29] = tested on: HL-60(TB) leukemia
# [30] = tested on: MCF7 breast
# [31] = tested on: SNB-75 CNS
# [32] = tested on: BT-549 breast
# [33] = tested on: SK-MEL-28 melanoma
# [34] = tested on: T-47D breast
# [35] = tested on: PC-3 prostate
# [36] = tested on: OVCAR-8 ovarian
# [37] = tested on: HS 578T breast
# [38] = tested on: SW-620 colon
# [39] = tested on: MOLT-4 leukemia
# [40] = tested on: SR leukemia
# [41] = tested on: CCRF-CEM leukemia
# [42] = tested on: UO-31 renal
# [43] = tested on: KM12 colon
# [44] = tested on: SNB-19 CNS
# [45] = tested on: SF-295 CNS
# [46] = tested on: OVCAR-4 ovarian
# [47] = tested on: A498 renal
# [48] = tested on: HCT-15 colon
# [49] = tested on: COLO 205 colon
# [50] = tested on: UACC-257 melanoma
# [51] = tested on: NCI-H23 lung
# [52] = tested on: U251 CNS
# [53] = tested on: IGROV1 ovarian
# [54] = tested on: SK-MEL-2 melanoma
# [55] = tested on: EKVX NSCLC
# [56] = tested on: NCI-H226 lung
# [57] = tested on: K-562 leukemia
# [58] = tested on: LOX IMVI melanoma
structure (smiles),measurement,setting,value
CCN(CC)Cc1cc(Nc2c3ccccc3nc3c4ccccc4n(C)c23)cc(CN(CC)CC)c1O,TGI,[1],5.25 µM
same,TGI,[2],10100 nM
same,TGI,[3],15.2 µM
same,TGI,[4],16 µM
same,TGI,[5],20.4 µM
same,TGI,[6],13.4 µM
same,TGI,[7],32.5 µM
same,TGI,[8],19.2 µM
same,TGI,[9],3720 nM
same,TGI,[10],8.89 µM
same,TGI,[11],31.9 µM
same,TGI,[12],11000 nM
same,TGI,[13],28.1 µM
same,TGI,[14],28.8 µM
same,TGI,[15],4.77 µM
same,TGI,[16],23.3 µM
same,TGI,[17],10.4 µM
same,TGI,[18],22.1 µM
same,TGI,[19],10200 nM
same,TGI,[20],3370 nM
same,TGI,[21],29.2 µM
same,TGI,[22],14.9 µM
same,TGI,[23],11.8 µM
same,TGI,[24],> 100 µM
same,TGI,[25],13.8 µM
same,TGI,[26],17.2 µM
same,TGI,[27],20.4 µM
same,TGI,[28],11200 nM
same,TGI,[29],12.2 µM
same,TGI,[30],19300 nM
same,TGI,[31],25.2 µM
same,TGI,[32],11.1 µM
same,TGI,[33],6.34 µM
same,TGI,[34],15.7 µM
same,TGI,[35],11.8 µM
same,TGI,[36],20.8 µM
same,TGI,[37],26.6 µM
same,TGI,[38],13.3 µM
same,TGI,[39],> 33.3 µM
same,TGI,[40],10700 nM
same,TGI,[41],14.2 µM
same,TGI,[42],6.68 µM
same,TGI,[43],20.7 µM
same,TGI,[44],27.4 µM
same,TGI,[45],17.6 µM
same,TGI,[46],18 µM
same,TGI,[47],18.4 µM
same,TGI,[48],14.4 µM
same,TGI,[49],10.8 µM
same,TGI,[50],7.07 µM
same,TGI,[51],27 µM
same,TGI,[52],20.1 µM
same,TGI,[53],24.6 µM
same,TGI,[54],7.6 µM
same,TGI,[55],21.4 µM
same,TGI,[56],18.4 µM
same,TGI,[57],> 35000 nM
CCCCN1CCN(c2ccc3nc(-c4ccc5nc(-c6ccc(OC)c(OC)c6)[nH]c5c4)[nH]c3c2)CC1,GI50,[1],73.4 nM
same,TGI,[1],1.27 µM
same,GI50,[2],917 nM
same,TGI,[2],2150 nM
same,GI50,[3],1220 nM
same,TGI,[3],2.63 µM
same,GI50,[4],616 nM
same,TGI,[4],1.55 µM
same,GI50,[5],1060 nM
same,TGI,[5],5.07 µM
same,GI50,[58],366 nM
same,TGI,[58],1310 nM
same,GI50,[6],1540 nM
same,TGI,[6],3.1 µM
same,GI50,[7],1430 nM
same,TGI,[7],6.34 µM
same,GI50,[8],1040 nM
same,TGI,[8],2.4 µM
same,GI50,[9],599 nM
same,TGI,[9],2130 nM
same,GI50,[10],> 100000 nM
same,TGI,[10],> 100 µM
same,GI50,[11],1170 nM
same,TGI,[11],3.32 µM
same,GI50,[12],285 nM
same,TGI,[12],1450 nM
same,GI50,[13],1120 nM
same,TGI,[13],3.44 µM
same,GI50,[14],1350 nM
same,TGI,[14],6.64 µM
same,GI50,[15],258 nM
same,TGI,[15],1.52 µM
same,GI50,[16],754 nM
same,TGI,[16],4.04 µM
same,GI50,[17],431 nM
same,TGI,[17],1.94 µM
same,GI50,[18],2320 nM
same,TGI,[18],6.09 µM
same,GI50,[19],599 nM
same,TGI,[19],2000 nM
same,GI50,[20],213 nM
same,TGI,[20],1520 nM
same,GI50,[21],490 nM
same,TGI,[21],3.98 µM
same,GI50,[23],389 nM
same,TGI,[23],1.98 µM
same,GI50,[24],458 nM
same,TGI,[24],2.12 µM
same,GI50,[25],2270 nM
same,TGI,[25],12.4 µM
same,GI50,[26],1520 nM
same,TGI,[26],6.64 µM
same,GI50,[27],738 nM
same,TGI,[27],3.66 µM
same,GI50,[28],428 nM
same,TGI,[28],1950 nM
same,GI50,[29],646 nM
same,TGI,[29],2.95 µM
same,GI50,[30],196 nM
same,TGI,[30],1560 nM
same,GI50,[31],180 nM
same,TGI,[31],3.84 µM
same,GI50,[32],1270 nM
same,TGI,[32],2.69 µM
same,GI50,[33],857 nM
same,TGI,[33],2.24 µM
same,GI50,[34],399 nM
same,TGI,[34],2.85 µM
same,GI50,[35],1160 nM
same,TGI,[35],3.29 µM
same,GI50,[36],435 nM
same,TGI,[36],2.17 µM
same,GI50,[37],1300 nM
same,TGI,[37],4.31 µM
same,GI50,[38],306 nM
same,TGI,[38],1.76 µM
same,GI50,[39],903 nM
same,TGI,[39],3.84 µM
same,GI50,[40],308 nM
same,TGI,[40],1380 nM
same,GI50,[41],434 nM
same,TGI,[41],2.05 µM
same,GI50,[42],8.04 µM
same,TGI,[42],> 39.9 µM
same,GI50,[43],1370 nM
same,TGI,[43],3.13 µM
same,GI50,[45],647 nM
same,TGI,[45],3.54 µM
same,GI50,[46],334 nM
same,TGI,[46],1.88 µM
same,GI50,[47],894 nM
same,TGI,[47],2.36 µM
same,GI50,[48],3290 nM
same,TGI,[48],30 µM
same,GI50,[49],173 nM
same,TGI,[49],1.36 µM
same,GI50,[50],537 nM
same,TGI,[50],2.39 µM
same,GI50,[51],617 nM
same,TGI,[51],2.03 µM
same,GI50,[52],1050 nM
same,TGI,[52],2.26 µM
same,GI50,[53],1290 nM
same,TGI,[53],3.39 µM
same,GI50,[54],1320 nM
same,TGI,[54],2.77 µM
same,GI50,[55],2140 nM
same,TGI,[55],> 100 µM
same,GI50,[56],1340 nM
same,TGI,[56],2.97 µM
same,GI50,[57],280 nM
same,TGI,[57],1890 nM
CCN1CCN(c2cc(C)nc(N(CCNc3ccnc4cc(Cl)ccc34)Cc3ccc4c(c3)OCO4)n2)CC1,GI50,[1],1670 nM
same,TGI,[1],3.37 µM
same,GI50,[2],688 nM
same,TGI,[2],2120 nM
same,GI50,[3],1520 nM
same,TGI,[3],3.12 µM
same,GI50,[4],1770 nM
same,TGI,[4],3.61 µM
same,GI50,[5],1940 nM
same,TGI,[5],5.21 µM
same,GI50,[58],1500 nM
same,TGI,[58],2890 nM
same,GI50,[6],1370 nM
same,TGI,[6],3 µM
same,GI50,[7],2120 nM
same,TGI,[7],5.34 µM
same,GI50,[8],2090 nM
same,TGI,[8],4.22 µM
same,GI50,[9],1560 nM
same,TGI,[9],2930 nM
same,GI50,[10],1600 nM
same,TGI,[10],3.51 µM
same,GI50,[11],2130 nM
same,TGI,[11],4.93 µM
same,GI50,[12],1030 nM
same,TGI,[12],2390 nM
same,GI50,[14],1800 nM
same,TGI,[14],3.72 µM
same,GI50,[15],1580 nM
same,TGI,[15],3.18 µM
same,GI50,[16],2230 nM
same,TGI,[16],7.25 µM
same,GI50,[17],1830 nM
same,TGI,[17],3.63 µM
same,GI50,[18],2530 nM
same,TGI,[18],6.51 µM
same,GI50,[19],1480 nM
same,TGI,[19],2900 nM
same,GI50,[20],1490 nM
same,TGI,[20],2950 nM
same,GI50,[22],1490 nM
same,TGI,[22],2.9 µM
same,GI50,[23],1160 nM
same,TGI,[23],3.71 µM
same,GI50,[24],1200 nM
same,TGI,[24],3.37 µM
same,GI50,[25],1860 nM
same,TGI,[25],4.39 µM
same,GI50,[26],1210 nM
same,TGI,[26],3.71 µM
same,GI50,[27],1830 nM
same,TGI,[27],3.71 µM
same,GI50,[28],1200 nM
same,TGI,[28],2640 nM
same,GI50,[29],1900 nM
same,TGI,[29],3.84 µM
same,GI50,[30],1190 nM
same,TGI,[30],2830 nM
same,GI50,[31],1330 nM
same,TGI,[31],2.72 µM
same,GI50,[32],1540 nM
same,TGI,[32],3.13 µM
same,GI50,[33],1720 nM
same,TGI,[33],3.5 µM
same,GI50,[34],1990 nM
same,TGI,[34],4.96 µM
same,GI50,[35],1980 nM
same,TGI,[35],7 µM
same,GI50,[36],1640 nM
same,TGI,[36],3.36 µM
same,GI50,[37],1790 nM
same,TGI,[37],4.15 µM
same,GI50,[38],1580 nM
same,TGI,[38],3.45 µM
same,GI50,[39],728 nM
same,TGI,[39],3.1 µM
same,GI50,[40],189 nM
same,TGI,[40],544 nM
same,GI50,[41],728 nM
same,TGI,[41],4.69 µM
same,GI50,[42],1.36 µM
same,TGI,[42],3.3 µM
same,GI50,[43],1800 nM
same,TGI,[43],5.97 µM
same,GI50,[44],2670 nM
same,TGI,[44],8.49 µM
same,GI50,[45],1450 nM
same,TGI,[45],2.98 µM
same,GI50,[46],1930 nM
same,TGI,[46],6.18 µM
same,GI50,[47],1500 nM
same,TGI,[47],3.3 µM
same,GI50,[48],875 nM
same,TGI,[48],2.69 µM
same,GI50,[49],1510 nM
same,TGI,[49],3.26 µM
same,GI50,[50],2050 nM
same,TGI,[50],3.88 µM
same,GI50,[51],1880 nM
same,TGI,[51],5.01 µM
same,GI50,[52],1490 nM
same,TGI,[52],3.16 µM
same,GI50,[53],1480 nM
same,TGI,[53],3.92 µM
same,GI50,[54],1630 nM
same,TGI,[54],3.15 µM
same,GI50,[55],2330 nM
same,TGI,[55],7.91 µM
same,GI50,[56],2430 nM
same,TGI,[56],7.05 µM
same,GI50,[57],355 nM
same,TGI,[57],1700 nM
